Consider four molecules from article PMC3914206.

Holding throughout (assay type): binding
What all share (settings): Compound Concentration 10 µM

Test [1] has as its target T1, panel of 442 kinases (Homo sapiens, UniProt Q9BRS2).
T1 construct: purchased KINOMEscan
T1 sequence (Q9BRS2 1-568): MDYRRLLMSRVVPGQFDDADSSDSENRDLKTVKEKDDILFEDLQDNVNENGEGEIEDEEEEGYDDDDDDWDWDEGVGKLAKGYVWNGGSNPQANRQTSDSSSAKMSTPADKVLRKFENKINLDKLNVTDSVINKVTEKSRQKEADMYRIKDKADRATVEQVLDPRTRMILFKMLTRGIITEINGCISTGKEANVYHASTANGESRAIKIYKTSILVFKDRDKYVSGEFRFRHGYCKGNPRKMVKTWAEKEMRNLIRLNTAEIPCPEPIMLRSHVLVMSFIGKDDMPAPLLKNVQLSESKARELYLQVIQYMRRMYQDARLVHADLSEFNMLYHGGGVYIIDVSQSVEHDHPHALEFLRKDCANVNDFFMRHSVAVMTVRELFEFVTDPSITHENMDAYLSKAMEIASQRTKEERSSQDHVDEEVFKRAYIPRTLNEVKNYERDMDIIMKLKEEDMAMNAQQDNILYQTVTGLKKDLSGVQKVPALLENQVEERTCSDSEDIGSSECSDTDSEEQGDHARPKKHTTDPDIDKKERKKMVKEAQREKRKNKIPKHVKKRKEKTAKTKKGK
An excerpt: (§1) We assessed the selectivity of members of this scaffold using the KINOMEscan methodology across a near comprehensive panel of 442 kinases [[18,27]].

Test [2] addresses T2, panel of 442 kinases (Homo sapiens, UniProt Q15746).
T2 construct: purchased KINOMEscan
Text: as §1

Test [3] concerns the target T3, panel of 442 kinases (Homo sapiens, UniProt P11362).
T3 construct: purchased KINOMEscan
Text: as §1

Each structure is given as a SMILES string.

T3 sequence (P11362 22-822): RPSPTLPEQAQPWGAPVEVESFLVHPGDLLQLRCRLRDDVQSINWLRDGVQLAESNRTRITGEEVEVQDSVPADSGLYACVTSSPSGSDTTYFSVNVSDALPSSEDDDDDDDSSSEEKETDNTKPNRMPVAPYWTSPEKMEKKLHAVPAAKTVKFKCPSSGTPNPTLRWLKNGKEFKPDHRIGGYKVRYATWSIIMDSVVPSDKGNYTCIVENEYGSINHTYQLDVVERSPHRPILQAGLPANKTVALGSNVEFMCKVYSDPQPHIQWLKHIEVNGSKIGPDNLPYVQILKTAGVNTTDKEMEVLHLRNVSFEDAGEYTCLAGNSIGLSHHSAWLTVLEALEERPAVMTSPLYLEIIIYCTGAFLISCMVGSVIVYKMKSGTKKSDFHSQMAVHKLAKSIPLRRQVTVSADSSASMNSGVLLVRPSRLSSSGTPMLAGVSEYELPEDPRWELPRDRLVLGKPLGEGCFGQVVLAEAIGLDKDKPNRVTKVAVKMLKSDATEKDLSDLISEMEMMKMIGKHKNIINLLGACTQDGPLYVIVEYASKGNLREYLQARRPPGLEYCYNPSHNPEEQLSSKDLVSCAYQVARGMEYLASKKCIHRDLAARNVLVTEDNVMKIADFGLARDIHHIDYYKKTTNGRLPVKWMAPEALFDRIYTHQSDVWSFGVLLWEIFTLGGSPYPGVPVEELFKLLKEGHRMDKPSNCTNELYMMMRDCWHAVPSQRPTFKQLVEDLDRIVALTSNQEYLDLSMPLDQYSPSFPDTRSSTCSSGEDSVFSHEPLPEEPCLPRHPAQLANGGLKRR
T2 sequence (Q15746 whole entry): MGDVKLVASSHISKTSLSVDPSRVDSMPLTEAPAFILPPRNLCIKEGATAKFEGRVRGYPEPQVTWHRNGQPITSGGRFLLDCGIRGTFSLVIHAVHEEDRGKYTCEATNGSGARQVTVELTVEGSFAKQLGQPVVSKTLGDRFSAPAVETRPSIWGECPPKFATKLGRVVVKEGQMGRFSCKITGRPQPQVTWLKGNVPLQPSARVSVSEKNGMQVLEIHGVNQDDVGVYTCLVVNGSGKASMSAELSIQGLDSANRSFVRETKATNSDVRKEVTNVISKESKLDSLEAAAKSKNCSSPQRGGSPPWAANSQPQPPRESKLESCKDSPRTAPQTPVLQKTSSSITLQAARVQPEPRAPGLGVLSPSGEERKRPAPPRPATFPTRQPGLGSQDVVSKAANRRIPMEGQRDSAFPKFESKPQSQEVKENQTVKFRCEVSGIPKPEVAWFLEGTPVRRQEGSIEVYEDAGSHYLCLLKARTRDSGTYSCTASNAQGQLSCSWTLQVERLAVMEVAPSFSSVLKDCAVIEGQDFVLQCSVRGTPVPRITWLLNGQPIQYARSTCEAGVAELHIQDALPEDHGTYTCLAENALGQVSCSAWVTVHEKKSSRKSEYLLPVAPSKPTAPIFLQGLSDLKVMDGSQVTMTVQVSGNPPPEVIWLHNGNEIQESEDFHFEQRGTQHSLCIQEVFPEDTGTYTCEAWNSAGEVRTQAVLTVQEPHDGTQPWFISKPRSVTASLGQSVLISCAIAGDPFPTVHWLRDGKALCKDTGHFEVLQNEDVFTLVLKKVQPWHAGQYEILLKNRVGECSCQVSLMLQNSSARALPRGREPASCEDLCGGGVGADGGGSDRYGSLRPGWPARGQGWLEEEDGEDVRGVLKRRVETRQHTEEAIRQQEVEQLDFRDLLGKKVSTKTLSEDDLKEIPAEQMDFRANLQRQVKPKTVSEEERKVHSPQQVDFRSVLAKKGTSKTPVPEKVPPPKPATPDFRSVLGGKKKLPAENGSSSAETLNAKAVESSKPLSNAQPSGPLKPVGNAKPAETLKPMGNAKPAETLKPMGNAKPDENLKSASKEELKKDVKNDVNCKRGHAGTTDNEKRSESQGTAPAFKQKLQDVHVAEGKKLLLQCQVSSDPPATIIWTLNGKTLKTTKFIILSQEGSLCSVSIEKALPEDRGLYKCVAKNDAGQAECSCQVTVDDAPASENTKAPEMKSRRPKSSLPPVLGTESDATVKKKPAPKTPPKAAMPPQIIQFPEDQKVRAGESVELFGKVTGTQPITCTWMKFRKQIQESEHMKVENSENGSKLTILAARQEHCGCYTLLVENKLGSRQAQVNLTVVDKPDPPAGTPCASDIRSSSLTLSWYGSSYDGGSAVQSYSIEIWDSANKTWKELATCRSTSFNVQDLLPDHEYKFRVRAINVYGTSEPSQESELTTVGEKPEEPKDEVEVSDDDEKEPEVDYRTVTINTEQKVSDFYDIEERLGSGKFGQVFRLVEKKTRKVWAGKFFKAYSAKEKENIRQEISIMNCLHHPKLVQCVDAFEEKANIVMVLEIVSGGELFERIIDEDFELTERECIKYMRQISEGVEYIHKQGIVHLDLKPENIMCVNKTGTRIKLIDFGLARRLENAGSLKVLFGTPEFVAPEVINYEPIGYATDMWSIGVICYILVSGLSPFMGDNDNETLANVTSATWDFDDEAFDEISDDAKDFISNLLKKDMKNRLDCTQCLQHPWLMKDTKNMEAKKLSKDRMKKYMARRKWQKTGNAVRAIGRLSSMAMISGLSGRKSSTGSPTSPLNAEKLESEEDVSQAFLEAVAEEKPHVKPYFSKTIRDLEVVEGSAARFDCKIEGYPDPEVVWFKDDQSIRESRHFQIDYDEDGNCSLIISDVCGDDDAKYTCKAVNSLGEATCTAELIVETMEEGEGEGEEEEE

Regarding `CCOc1cc(C(=O)N2CCC(N3CCN(C)CC3)CC2)ccc1Nc1ncc2c(n1)N(C1CCCC1)c1ccccc1C(=O)N2C` [Compound 26], the “KINOMEscan: RIOK1” value on panel of 442 kinases [1] was 100. Moreover, the “KINOMEscan: MYLK” value on panel of 442 kinases [2] amounted to 98. The “KINOMEscan: FGFR1” value at panel of 442 kinases [3] was 100.
`COc1cc(C(=O)N2CCC(N3CCN(C)CC3)CC2)ccc1Nc1ncc2c(n1)N1CCc3cccc(c31)C(=O)N2C` [Compound 24]: the “KINOMEscan: MYLK” value on panel of 442 kinases [2] turned out to be 2.9. Also, the “KINOMEscan: FGFR1” value at panel of 442 kinases [3] is given as 83.
Regarding `COc1cc(C(=O)N2CCC(N3CCN(C)CC3)CC2)ccc1Nc1ncc2c(n1)N(C)c1ccccc1C(=O)N2C` [15 (LRRK2-IN-1)], the “KINOMEscan: RIOK1” value on panel of 442 kinases [1] is given as 100. Moreover, the “KINOMEscan: MYLK” value on panel of 442 kinases [2] stood at 8.7. For the same molecule, at panel of 442 kinases [3], the “KINOMEscan: FGFR1” value is reported as 86.
Taken in the same sequence, the figures for `COc1cc(C(=O)N2CCC(N3CCN(C)CC3)CC2)ccc1Nc1ncc2c(n1)N(C1CCCC1)c1ccccc1C(=O)N2C` [Compound 25, 11-cyclopentyl-2-((2-methoxy-4-(4-(4-methylpiperazin-1-yl)piperidine-1-carbonyl)phenyl)amino)-5-methyl-5H-benzo[e]pyrimido[5,4-b][1,4]diazepin-6(11H)-one] were 76, 73 and 100.
